# How the values were obtained:
# [1] = system: Recombinant NE protein of hepatitis E virus; assay: Sero-conversion after recombinant NE protein of hepatitis E virus mixed with BB; assay type: in vivo; conditions: 1 μg NE protein with 5 μM of BB, intramuscularly
# [2] = system: inactivated rabies virus (Rabipur); design: species or system mice; conditions: mouse, in vivo
# rHBsAg antigen = assay: Anti-HBsAg antibody titers after immunization of rats with rHBsAg plus BB adjuvant; assay type: in vivo; conditions: Wistar rats, rHBsAg 10 μg intramuscular day 0, serum every 14 days; BB-50 uM, BB-5 uM
# [3] = Water solubility (statement); assay type: physicochemical
# [4] = system: cancer cells (Mia-paca 2); assay: Interferon gamma ELISPOT on splenocytes after immunization with cancer cells with/without BB; assay type: in vivo, mice
# [5] = system: rDNA coding Rabies antigen; design: species or system Swiss albino mice; conditions: mouse, in vivo
compound,measurement,setting,value
"CC(=O)C1=CC[C@H]2[C@@H]3CC=C4C[C@@H](O)CC[C@]4(C)[C@H]3CC[C@]12C [BB, 3β-hydroxy-5,16-pregnadien-20-one]",sero-conversion,[1]; after 2nd injection given 2 weeks later,100%
same,sero-conversion,[1]; day 14 after 1st injection,60%
same,antibody response compared with rabies vaccine without adjuvant,[2],faster and stronger response
same,day on which titers were protective,[2],14 days
same,ranking as adjuvant (anti-HBsAg antibodies),rHBsAg antigen,lead adjuvants
same,water solubility,[3],water insoluble
same,effect of the generated immune response on tumor size,[4]; BB with cancer cells (Mia-paca 2),reduction of tumor size
same,IFN-g ELISPOT response relative to the mycobacterium adjuvanted group,"[4]; doses day 1 and day 21, splenocytes day 28",more then three times greater response
same,"day on which antibody titers are protective, after 1st dose of vaccine",[5],28 days
same,time the titers remained protective,[5],about 100 days

# Reference: patent US8647643B2, “Farnesoid-X-receptor antagonist as a vaccine adjuvant” (priority 2008, dated 2014)
